Test results published in US7323484B2, “Farnesyl transferase inhibitors” (Societe de Conseils de Recherches et d'Applications …, priority 1996, dated 2008).

These compounds were tested on MIA-PaCa pancreatic cancer cells (expressing mutated Ki-ras gene) (assay: Antiproliferative activity on human tumoral cells, WST-1 assay, MIA PaCa-2). Details: MIA PaCa-2 cells, 96 hrs treatment, 0 to 100 μM, WST-1, compared to control cells.
Type: cell-based
Method: Antiproliferative Activity of Farnesyl-Transferase Inhibitors on Human Tumoral Cells
The assays were performed using either A-427 lung carcinomas (expressing mutated Ki-ras gene), HT-29 colon adenocarcinomas (expressing wild type ras gene), Calu-1 lung carcinomas (expressing mutated Ki-ras gene), and MIA-PaCa pancreatic cancer cells (expressing mutated Ki-ras gene). These tumoral cells were seeded on 96 well plates at day 0 and maintained at 37° C. in 5% CO2 atmosphere. At day 1, cells were treated with increased concentrations of test compounds ranging from 0 to 100 μM for 96 hrs. At the end of this period, the quantification of cell proliferation was evaluated by the calorimetric assay based on the cleavage of the tetrazolium salt WST-1 by mitochondrial dehydrogenases in viable cells leading to the formazan formation (Cell Proliferation Reagent WST-1 Kit, Boehringer Mannheim, Germany). These experiments, done in octuplicate, were repeated twice. The results, shown in Table I, depict the concentration range (μM) of test compound required to inhibit proliferation as compared to control cells in which no test compound was added.

| Structure (SMILES) | concentration range of test compound required to inhibit proliferation, MIA PaCa-2 [µM] |
| --- | --- |
| CCCC[C@H]1c2nc(-c3ccccc3OC)cn2CCN1C(=O)[C@@H](N)CS [Compound 3, 7-(2-amino-1-oxo-3-thio-propyl)-8-butyl-2-(2-methoxy-phenyl)-5,6,7,8-tetrahydro-imidazo-[1,2a]-pyrazine] | 12.5 to 25 |
| CCC(C)[C@H]1c2nc(-c3ccccc3OC)cn2CCN1C(=O)[C@@H](N)CSSC[C@H](N)C(=O)N1CCn2cc(-c3ccccc3OC)nc2[C@@H]1C(C)CC (stereo partly shown) [Compound 20, bis-1,1′-[7-(2-amino-1-oxo-3-thiopropyl)-2-(methoxyphenyl)-8-(1-methylpropyl)-5,6,7,8-tetrahydroimidazo[1,2a]pyrazine]disulfide] | 12.5 |
| COc1ccccc1-c1cn2c(n1)[C@H](C(C)(C)C)N(C(=O)[C@@H](N)CS)CC2 [Compound 24, 7-(2-amino-1-oxo-3-thiopropyl)-8-(1,1-dimethylethyl)-2-(2-methoxyphenyl)-5,6,7,8-tetrahydroimidazo[1,2a]pyrazine] | 25 to 50 |
| CCC(C)[C@H]1c2nc(-c3ccccc3OCc3ccccc3)cn2CCN1C(=O)[C@@H](N)CS (stereo partly shown) [Compound 25, 7-(2-amino-1-oxo-3-thiopropyl)-8-(1-methylpropyl)-2-(2-(phenylmethoxy)phenyl)-5,6,7,8-tetrahydroimidazo[1,2a]pyrazine] | 6.25 to 12.5 |
| COc1ccccc1-c1cn2c(n1)[C@H](CC1CCCCC1)N(C(=O)[C@@H](N)CS)CC2 [Compound 26, 7-(2-amino-1-oxo-3-thiopropyl)-8-(cyclohexylmethyl)-2-(2-methoxyphenyl)-5,6,7,8-tetrahydroimidazo[1,2a]pyrazine] | 6.25 to 12.5 |
| CCCC[C@H]1c2nc(-c3c(O)cccc3OC)cn2CCN1C(=O)[C@@H](N)CS [Compound 29, 7-(2-amino-1-oxo-3-thiopropyl)-8-butyl-2 (2-hydroxy-6-methoxyphenyl)-5,6,7,8-tetrahydro[1,2a]pyrazine] | 6.25 to 12.5 |
| COc1ccccc1-c1cn2c(n1)[C@H](C(C)(C)C)N(C(=O)[C@@H](N)CSSC[C@H](N)C(=O)N1CCn3cc(-c4ccccc4OC)nc3[C@@H]1C(C)(C)C)CC2 [Compound 30, bis-1,1′-[7-(2-amino-1-oxo-3-thiopropyl)-8-(1,1-dimethylethyl)-2-(2-methoxyphenyl)-5,6,7,8-tetrahydroimidazo[1,2a]pyrazine]disulfide] | 12.5 to 25 |
